Entries after “also recorded” stand apart in the source; their conditions may differ. Like-named read-outs stand apart in the source and are kept apart here.
Legend:
N-CAM = biological target: T1, N-CAM (Homo sapiens, UniProt P13591); test: Neurite outgrowth on N-CAM expressing 3T3 monolayers (Example 2); type: cell-based, mouse; conditions: 500 μg/mL
T1 construct: expressed in transfected cells; host or cells: 3T3 fibroblasts (monolayer); mouse post-natal day 3 cerebellar neurons on top

[1] = Cytotoxicity, MTT assay, PC-3; type: cell-based, human; conditions: human, MTT assay, read-out: PC-3 Cytotox (IC50)
Outline: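 Human primary endothelial cells, fibroblast lines (IAFp2, WI-38) and cancer lines (MDA-MB231, PC-3) receive the CHAVC peptide or the CHGVC control at ≤100 μM. Viability is scored by MTT and DNA synthesis by ^3H-thymidine uptake.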

[2] = system: SKOV3 human ovarian cancer cells; test: Induction of apoptosis in SKOV3 cancer cells, in situ cell death detection; type: cell-based; conditions: 0.5 or 0.25 mg/mL, 48 hours
Experimental: Direct assays of induction of apoptosis may be performed using any standard technique. For example, cadherin-expressing cells (e.g., SKOV3 human ovarian cancer cells) may be plated onto poly-L-lysine coated glass slides and cultured with 500 μg/mL of modulating agent for 24-48 hours. Cells may then be fixed and assayed for cell death using any of a variety of well known methods. For example, an in situ cell death detection kit may be purchased from Boehringer Mannheim (Laval, Quebec) and used according to the manufacturer's instructions.
SKOV3 human ovarian cancer cells cultured in the presence of either N—Ac-CHAVC-NH2 (SEQ ID NO:10) or a control peptide (N—Ac-CHGVC-NH2; SEQ ID NO:11) in MEM with 10% FBS were plated onto poly-L-lysine coated glass slides. The cells were cultured for 24 or 48 hours and fixed with 4% paraformaldehyde for 30 minutes at room temperature. The slides were then washed three times with PBS and assessed for cell death. Cells were treated with 0.5 or 0.25 mg/mL of N—Ac-CHAVC-NH2 (SEQ ID NO:10) or the control N—Ac-CHGVC-NH2 (SEQ ID NO:11), as indicated. Cell death was measured as described by Gavrieli et al, J. Cell. Biol. 119:493-501, 1992 and using the In situ cell death detection kit (Boehringer Mannheim; Laval, Quebec).

N-cadherin = biological target: T2, N-cadherin (Gallus gallus, UniProt P10288); test: Neurite outgrowth of mouse cerebellar neurons on N-cadherin expressing 3T3 monolayers (Example 2); type: cell-based
T2 construct: expressed in transfected cells; host or cells: 3T3 fibroblasts (monolayer)
T2 sequence (P10288 165-912): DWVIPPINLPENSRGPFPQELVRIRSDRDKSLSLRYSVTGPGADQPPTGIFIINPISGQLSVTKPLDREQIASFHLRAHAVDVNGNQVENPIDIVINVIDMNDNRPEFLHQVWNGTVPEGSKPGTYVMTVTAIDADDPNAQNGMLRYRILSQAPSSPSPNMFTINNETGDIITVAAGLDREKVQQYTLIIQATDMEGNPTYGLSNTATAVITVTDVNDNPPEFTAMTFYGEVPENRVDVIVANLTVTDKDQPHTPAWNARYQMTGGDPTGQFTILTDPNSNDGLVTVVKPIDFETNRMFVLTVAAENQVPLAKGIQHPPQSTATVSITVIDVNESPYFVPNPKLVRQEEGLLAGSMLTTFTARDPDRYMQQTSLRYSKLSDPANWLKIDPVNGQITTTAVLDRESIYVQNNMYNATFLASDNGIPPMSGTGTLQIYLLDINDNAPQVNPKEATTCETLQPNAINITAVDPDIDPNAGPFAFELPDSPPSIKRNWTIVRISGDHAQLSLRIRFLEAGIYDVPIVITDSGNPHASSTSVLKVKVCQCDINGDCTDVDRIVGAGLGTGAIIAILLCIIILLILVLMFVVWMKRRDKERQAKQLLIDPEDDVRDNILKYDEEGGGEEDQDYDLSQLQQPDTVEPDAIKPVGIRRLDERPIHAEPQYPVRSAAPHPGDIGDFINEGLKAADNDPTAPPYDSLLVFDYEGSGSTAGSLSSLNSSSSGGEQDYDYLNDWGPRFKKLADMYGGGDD
Excerpt: Within a representative neurite outgrowth assay, neurons may be cultured on a monolayer of cells (e.g., 3T3) that express N-cadherin. […] For example, neurons may be cultured on monolayers of 3T3 cells transfected with cDNA encoding N-cadherin essentially as described by Doherty and Walsh, Curr. Op. Neurobiol. 4:49-55, 1994; Williams et al., Neuron 13:583-594, 1994; Hall et al., Cell Adhesion and Commun. 3:441-450, 1996; Doherty and Walsh, Mol. Cell. Neurosci. 8:99-111, 1994; and Safell et al., Neuron 18:231-242, 1997. Briefly, monolayers of control 3T3 fibroblasts and 3T3 fibroblasts that express N-cadherin may be established by overnight culture of 80,000 cells in individual wells of an 8-chamber well tissue culture slide. 3000 cerebellar neurons isolated from post-natal day 3 mouse brains may be cultured for 18 hours on the various monolayers in control media (SATO/2% FCS), or media supplemented with various concentrations of the modulating agent or control peptide. The cultures may then be fixed and stained for GAP43 which specifically binds to the neurons and their neurites. The length of the longest neurite on each GAP43 positive neuron may be measured by computer assisted morphometry.
Neurons were cultured on monolayers of 3T3 cells transfected with cDNA encoding N-cadherin essentially as described by Doherty and Walsh, Curr. Op. Neurobiol. 4:49-55, 1994; Williams et al., Neuron 13:583-594, 1994; Hall et al., Cell Adhesion and Commun. 3:441-450, 1996; Doherty and Walsh, Mol. Cell. Neurosci. 8:99-111, 1994; Safell et al., Neuron 18:231-242, 1997. Briefly, monolayers of control 3T3 fibroblasts and 3T3 fibroblasts that express N-cadherin were established by overnight culture of 80,000 cells in individual wells of an 8-chamber well tissue culture slide. […] The length of the longest neurite on each GAP43 positive neuron was then measured by computer assisted morphometry.

T1 sequence (P13591 20-858, species assumed): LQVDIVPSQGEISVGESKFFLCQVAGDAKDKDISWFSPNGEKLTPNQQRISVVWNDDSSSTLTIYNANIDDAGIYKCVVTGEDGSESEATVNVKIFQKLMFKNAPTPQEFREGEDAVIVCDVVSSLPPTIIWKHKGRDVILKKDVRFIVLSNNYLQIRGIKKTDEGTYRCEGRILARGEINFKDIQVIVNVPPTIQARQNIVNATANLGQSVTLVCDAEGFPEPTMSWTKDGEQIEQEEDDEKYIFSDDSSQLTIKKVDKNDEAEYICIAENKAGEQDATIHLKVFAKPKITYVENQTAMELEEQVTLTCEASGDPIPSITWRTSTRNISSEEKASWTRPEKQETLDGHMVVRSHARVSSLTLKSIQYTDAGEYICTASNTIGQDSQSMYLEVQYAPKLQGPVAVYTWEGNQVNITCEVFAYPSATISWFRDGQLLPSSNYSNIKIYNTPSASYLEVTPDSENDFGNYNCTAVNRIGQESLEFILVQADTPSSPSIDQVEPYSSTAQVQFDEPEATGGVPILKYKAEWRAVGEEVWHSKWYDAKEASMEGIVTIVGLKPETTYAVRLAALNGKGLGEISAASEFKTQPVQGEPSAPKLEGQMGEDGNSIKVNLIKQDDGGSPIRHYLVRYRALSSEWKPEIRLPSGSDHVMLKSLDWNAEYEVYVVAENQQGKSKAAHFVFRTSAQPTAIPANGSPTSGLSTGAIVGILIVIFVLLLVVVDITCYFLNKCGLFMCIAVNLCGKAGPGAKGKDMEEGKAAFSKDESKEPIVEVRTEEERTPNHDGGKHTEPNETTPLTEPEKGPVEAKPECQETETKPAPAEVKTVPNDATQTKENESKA

CC(=O)N[C@H]1CSSC[C@@H](C(N)=O)NC(=O)[C@H](C(C)C)NC(=O)[C@H](C)NC(=O)[C@H](Cc2c[nH]cn2)NC1=O [N—Ac—CHAVC—NH2, N-Ac-Cys-His-Ala-Val-Cys-NH2]
inhibition of neurite outgrowth on 3T3 cells expressing N-CAM (N-CAM): did not inhibit neurite outgrowth | IC50 ([1]; PC-3 prostate cancer cell line): > 100 µM | cell death of SKOV3 cells [2]: fluorescent green nuclei in FIGS. 35C and 35D indicate cell death; also recorded: can cause human ovarian cancer cell death | inhibition of neurite outgrowth on 3T3 cells expressing N-cadherin (N-cadherin; 50 μg/mL): significantly inhibited neurite outgrowth | inhibition of neurite outgrowth on 3T3 cells expressing N-cadherin (N-cadherin; 500 μg/mL, 18 hours): completely inhibited neurite outgrowth

CC(=O)N[C@H]1CSSC[C@@H](C(N)=O)NC(=O)[C@H](C(C)C)NC(=O)CNC(=O)[C@H](Cc2c[nH]cn2)NC1=O [N—Ac—CHGVC—NH2, reference compound]
IC50 ([1]; PC-3 cells (human prostate cancer cell line)): > 100 µM | cell death of SKOV3 cells [2]: did not die | inhibition of neurite outgrowth on 3T3 cells expressing N-cadherin (N-cadherin; 500 μg/mL, 18 hours): had no effect on this process

Reference: patent publication US20040106545A1, “Compounds and methods for modulating cell adhesion” (priority 1996, published 2004)
